Measurements as given in patent US8859628B2, “Method for preventing, treating and diagnosing disorders of protein aggregation” (priority 2003, dated 2014).
Entries after “also recorded” stand apart in the source; their conditions may differ. Marks after values point to notes of the source that are not given here.

Tests used:
TgCRND8 mice [1] = settings: mouse, in vivo
From the text: Animals were sacrificed after one month of treatment and analysed for pathological outcomes.
(§1) In these experiments, the dosage and oral administration of compounds, and the behavioral and neurochemical assays were the same as those employed in the above treatment experiments.

TgCRND8 mice [2] = test: Vascular amyloid burden; assay type: in vivo, mouse; settings: 6 months of age
Procedure: (§2) Cerebral amyloid burden—Brains were removed and one hemisphere was fixed in 4% paraformaldehyde and embedded in paraffin wax in the mid saggital plane. To generate sets of systematic uniform random sections, 5 μm serial sections were collected across the entire hemisphere. Sets of sections at […] intervals were used for analyses (10-14 sections/set). Plaque were identified after antigen retrieval with formic acid, and incubated with primary anti-Aβ antibody (Dako M-0872), followed by secondary antibody (Dako StreptABCcomplex/horseradish kit). End products were visualized with DAB counter-stained with hematoxylin. Amyloid plaque burden was assessed using Leco IA-3001 image analysis software interfaced with Leica microscope and Hitachi KP-M1U CCD video camera. Vascular burden was analyzed similarly and a dissector was used to measure the diameter of affected vessels.
Alzheimer's disease is characterized by the presence of both parenchymal and vascular amyloid deposits. In untreated 6 month old TgCRND8 mice approximately 0.03% of the brain area is associated with vascular amyloid.

TgCRND8 mice [3] = test: Cerebral Aβ content (Aβ40 and Aβ42 kits on hemi-brain homogenates); assay type: in vivo, mouse; parameters: Total Aβ: unit not given here
Procedure: (§3) Plasma and Cerebral Aβ Content—Hemi-brain samples were homogenized in a buffered sucrose solution, followed by either 0.4% diethylamine/100 mM NaCl for soluble Aβ levels or cold formic acid for the isolation of total Aβ. After neutralization the samples were diluted and analyzed for Aβ40 and Aβ42 using commercially available kits (BIOSOURCE International). Each hemisphere was analyzed in triplicate with the mean±SEM reported. Western blot analyses were performed on all fractions using urea gels for Aβ species analyses. Aβ was detected using 6E10 (BIOSOURCE International) and Enhanced Chemiluminenscence (Amersham).
(§4) Plasma and Cerebral Aβ Content—Hemi-brain samples were homogenized in a buffered sucrose solution, followed by either 0.4% diethylamine/100 mM NaCl for soluble Aβ levels or cold formic acid for the isolation of total Aβ. After neutralization the samples were diluted and analyzed for Aβ40 and Aβ42 using commercially available kits (BIOSOURCE International). Each hemisphere was analyzed in triplicate with the mean±SEM reported.

TgCRND8 mice [4] = test: Cerebral amyloid plaque burden (anti-Aβ immunostaining, image analysis); assay type: in vivo, mouse
Procedure: as §2
as §2, with “camera.” for “camera. Vascular burden was analyzed similarly and a dissector was used to measure the diameter of affected vessels.”

TgPS1xAPP mice = test: Plaque burden in double transgenic PS1 x APP model (prophylactic trial); assay type: in vivo, mouse; settings: 2 months of age
From the text: Tg PS1 x APP mice are an enhanced model of Alzheimer's disease which express a mutant human PS1 transgene encoding two familial mutations (M146L and L286V) in conjunction with the human APP transgene encoding the Indiana and Swedish familial mutations. These animals develop robust expression of cerebral Aβ levels and amyloid deposition by 30-45 days of age.

non-Tg littermates = test: Morris Water Maze performance of treated non-Tg littermates; assay type: in vivo, mouse; settings: treated vs untreated non-Tg
Procedure: Behavioral tests—After non-spatial pre-training, mice underwent place discrimination training for 5 days with 4 trials per day. Behavioral data was analyzed using a mixed model of factorial analysis of variance (ANOVA) with drug or genotype and training sessions as repeated measure factors.
(§5) Behavioral Test—Reversal Study—Mice entered the Morris water maze test with a hidden platform on day one without pretraining. Mice were tested for 3 days with six trials per day. On the fourth day, the platform was removed from the pool and each mouse received one 30-s swim probe trial. On the last day the animals underwent a cue test in order to evaluate swimming ability, eye sight and general cognition. The cue test is composed at the platform being placed in a different quadrant than that used for testing and is tagged with a flag. Animals are allowed 60 s to find the platform. […] Behavioural data was analysed using a mixed model of factorial analysis of variance (ANOVA) with drug or genotype and training sessions as repeated measure factors.

TgCRND8 mice [5] = test: Gliosis quantitation (GFAP astrocytes, CD68 microglia); assay type: in vivo, mouse; settings: prevention
From the text: Gliosis Quantitation—Five randomly selected, evenly spaced, sagittal sections were collected from paraformaldehyde-fixed and frozen hemispheres of treated and control mice. Sections were immunolabelled for astrocytes with anti-rat GFAP IgG2a (Dako; diluted 1:50) and for microglia with anti-rat CD68 IgG2b (Dako; 1:50).
Serial sagittal sections were stained with the astrocytic marker glial fibrillary acidic protein (GFAP) and quantitated for percent brain area covered by astrogliosis.

TgCRND8 mice [6] = test: Morris Water Maze, spatial reference memory version, three-day trial paradigm (treatment/reversal study); assay type: in vivo, mouse; settings: three-day paradigm
Procedure: A cohort entered the study at 5 months of age and outcomes were analyzed at 6-months of age. The body weight, coat characteristics and in cage behavior was monitored. All experiments were performed according to the Canadian Council on Animal Care guidelines.
as §5
The cognitive function of TgCRND8 mice was assessed using the spatial reference memory version of the Morris Water Maze using a three day trial paradigm (FIGS. 4-8).
Behavioural data was analysed using a mixed model of factorial analysis of variance (ANOVA) with drug and genotype as between subject variables and training sessions as within subject variable.
as §1

TgCRND8 mice [7] = test: Plasma Aβ levels; assay type: in vivo, mouse
Procedure: as §3, §4

wild type mice = test: Control experiment: survival and general condition of treated wild type mice; assay type: in vivo, mouse
[8] = 1 month treatment from 5 months of age
[9] = 1 month treatment, 30 mg/mouse/day from 5 months, analyzed at 6 months of age
[10] = 4 month prevention, 30 mg/mouse/day from 6 weeks of age
[11] = 6 month prevention, 30 mg/mouse/day from 6 weeks of age
[12] = prevention, 6 months of age, vs untreated TgCRND8
[13] = prevention, four months of age, vs untreated TgCRND8

In the case of O[C@H]1[C@H](O)[C@@H](O)[C@H](O)[C@@H](O)[C@@H]1O [Scyllo-Inositol, scyllo-inositol], the “effects on blood chemistry or organ function” value (TgCRND8 mice [1]) is reported as “do not exhibit obvious deleterious effects on blood chemistry or organ function”, the “mean size of cerebrovascular plaques” value (TgCRND8 mice [2]; prevention) is reported as 154±16 and the “vascular amyloid burden vs untreated (words)” value (TgCRND8 mice [2]; prevention, listed as Scyllo-inositol) is reported as “significantly decreased the total vascular load”. The “vascular amyloid burden vs untreated (words)” value (TgCRND8 mice [2]; prevention, listed as scyllo-inositol) was “significantly decreased the vascular amyloid burden”, the “vascular amyloid deposition in small vessels” value (TgCRND8 mice [2]; smaller vessels) was 56±2% and the “Aβ load vs untreated” value (TgCRND8 mice [3]; [8]) was “significantly decreased the plaque burden and the Aβ load”. For the same compound, the “Total Aβ” value (TgCRND8 mice [3]; [9]) was 15194 ± 579, the “Total Aβ” value (TgCRND8 mice [3]; [10]) was 5089 ± 173 and the “Total Aβ” value (TgCRND8 mice [3]; [11]) was 15621 ± 151. The “reduction in Aβ40 levels” value (TgCRND8 mice [3]; [12]) was 32%, the “reduction in Aβ42” value (TgCRND8 mice [3]; [12]) was 20% and the “decrease of total brain Aβ40” value (TgCRND8 mice [3]; [13]) was 62%. For the same compound, the “decrease of total brain Aβ42” value (TgCRND8 mice [3]; [13]) was 22%, the “plaque burden vs untreated” value (TgCRND8 mice [4]; [8]) was “significantly decreased the plaque burden and the Aβ load” and the “Plaque Area” value (TgCRND8 mice [4]; [9]) was 420027 ± 14986* μm^2. For the same compound, the “Plaque Count” value (TgCRND8 mice [4]; [9]) was 1260 ± 27, the “Total Plaque Area/Total Brain Area” value (TgCRND8 mice [4]; [9]) was 0.119 ± 0.010 % and the “Plaque Area” value (TgCRND8 mice [4]; [10]) was 63847 ± 2895 μm^2. For the same compound, the “Plaque Count” value (TgCRND8 mice [4]; [10]) was 598 ± 19, the “Total Plaque Area/Total Brain Area” value (TgCRND8 mice [4]; [10]) was 0.015 ± 0.001 % and the “Plaque Area” value (TgCRND8 mice [4]; [11]) was 262379 ± 5373† μm^2. For the same compound, the “Plaque Count” value (TgCRND8 mice [4]; [11]) was 774 ± 10, the “Total Plaque Area/Total Brain Area” value (TgCRND8 mice [4]; [11]) was 0.079 ± 0.013 % and the “amyloid/plaque burden vs untreated (words)” value (TgCRND8 mice [4]; 6 months of age, prevention) was “significantly decreased amyloid burden and gliosis; also recorded: decreases plaque deposition”. The mean plaque size (TgCRND8 mice [4]; prevention, 4 months of age) was 103±4 μm^2, the “decrease in brain area covered with plaques” value (TgCRND8 mice [4]; prevention, 6 months of age) was 35% and the mean plaque size (TgCRND8 mice [4]; prevention, 6 months of age) was 339±10 μm^2. The “reduction in plaque number” value (TgCRND8 mice [4]; prevention, 6 months of age) was 20%, the “amyloid/plaque burden vs untreated (words)” value (TgPS1xAPP mice; listed as Scyllo-inositol) was “significantly decreased amyloid burden” and the “amyloid/plaque burden vs untreated (words)” value (TgPS1xAPP mice; listed as scyllo-inositol) was “significantly reduced”. For the same compound, the “% brain area covered in plaques” value (TgPS1xAPP mice; treated from weaning) was 0.065±0.016%, the Plaque Count (TgPS1xAPP mice; treated from weaning) was 1514±510 and the mean plaque size (TgPS1xAPP mice; treated from weaning) was 149±5 μm^2. The “effect on performance of non-Tg mice” value (non-Tg littermates) was “had no effect on the performance of non-Tg mice; also recorded: not effected”, the “astrogliosis/gliosis vs untreated” value (TgCRND8 mice [5]; 6 months of age) was “significantly decreased amyloid burden and gliosis” and the “astrogliosis, percent brain area covered (GFAP)” value (TgCRND8 mice [5]; 6-months of age) was 0.269±0.028%. The “microglial activation, % brain area” value (TgCRND8 mice [5]; 6 months) was 0.20±0.008%, the “cognitive function, treated TgCRND8 mice vs non-Tg littermates (words)” value (TgCRND8 mice [6]; [8]) was “indistinguishable from non-Tg littermates on all days; also recorded: comparable to scyllo-inositol treated non-Tg littermates” and the “cognitive function, treated TgCRND8 mice vs treated non-Tg littermates” value (TgCRND8 mice [6]; two months of treatment from 5 months of age) was “indistinguishable from scyllo-inositol treated non-Tg littermates; also recorded: remained indistinguishable from non-Tg littermates”. For the same compound, the “Plasma Aβ Levels” value (TgCRND8 mice [7]; 1 month treatment) was 1980 ± 146 pg/mL, the “effect on plasma Aβ levels in comparison to untreated (words)” value (TgCRND8 mice [7]; [8]) was “Neither myo-inositol, epi-inositol nor scyllo-inositol treatment had any effect on plasma Aβ levels” and the “Plasma Aβ Levels Aβ40” value (TgCRND8 mice [7]; 2 month treatment) was 4507 ± 207 pg/mL. For the same compound, the “Plasma Aβ Levels Aβ42” value (TgCRND8 mice [7]; 2 month treatment) was 3035 ± 236 pg/mL, the “Plasma Aβ Levels” value (TgCRND8 mice [7]; 4 month prevention) was 952 ± 49 pg/mL and the “Plasma Aβ Levels” value (TgCRND8 mice [7]; 6 month prevention) was 905 ± 55 pg/mL. The “effect on plasma Aβ levels in comparison to untreated (words)” value (TgCRND8 mice [7]; prevention, 4- and 6-months of age) was “Neither epi-inositol nor scyllo-inositol treatment had any effect on plasma Aβ levels” and the “survival, weight, fur condition, cage behavior” value (wild type mice) was “had no effect either on survival or on other parameters such as weight, fur condition or cage behavior”.
